According to patent US11684675B2, “Dimeric collagen hybridizing peptides and methods of using” (University of Utah Research Foundation, priority 2015, dated 2023):

Legend:
[1] = Triple helix melting point (Tm) by circular dichroism at 225 nm; assay type: physicochemical; conditions: for Tm (° C.): triple helix melting
Protocol: FIGS. 5A, 5B, 5C, and 5D show the thermal denaturation of fully assembled CHPs and subsequent cooling to initial temperature. Samples were heated at 1° C./min from their initial temperature final temperature of 90° C. Sample was then cooled at 1° C./min to the starting temperature. (A) Thermal denaturation and partial reassembly of CHP CF-6d (150 μM) monitored at 225 nm. Sample was measured from 4° C. to 90° C. (B) Thermal denaturation and partial reassembly of CHP […] (75 μM, corresponding to 150 μM strand concentration) monitored at 225 nm. Sample was measured from 4° C. to 90° C. (C) Thermal denaturation and partial reassembly of CHP CF-9 (150 μM) monitored at 225 nm. Sample was measured from 10° C. to 90° C. (D) Thermal denaturation and partial reassembly of CHP CF-9d (75 μM, corresponding to 150 μM strand concentration) monitored at 225 nm. Sample was measured from 10° C. to 90° C.
FIGS. 11A and 11B show the First Derivative of mean residue ellipticity (MRE) at 225 nm in CD. […] There is no significant change in melting point between the monomeric and dimeric forms of the same peptide.
(§1) Circular Dichroism: Circular Dichroism (CD) was measured for all peptides at 225 nm. Melting curves were taken on peptides between 10 and 80° C. at a heating rate of 0.5° C./min, with pauses at each 1° C. Refolding experiments were performed after peptide solutions were incubated at 4° C. for at least 12 hours. Concentrations were normalized to strand concentration.

[2] = CD refolding (triple helix assembly) at 10° C. monitored at 225 nm; assay type: physicochemical
Protocol: Conversion was assumed to be at 100% after 96 h incubation at 4° C., and max trimer concentration was measured via CD ellipticity at 10° C. Samples were preheated to 80° C. in the sample cuvette for 10 min before being transferred directly to the sample holder held at a constant 10° C. Sample measurement began immediately. Initial time point for analysis was determined by measuring time for a blank (lx PBS) to thermally equilibrate in these conditions.
For all peptides, conversion was assumed to be at 100% after 96 h incubation at 4° C., and max trimer concentration was measured via CD ellipticity at 10° C. Samples were preheated to 80° C. in the sample cuvette for 10 min before being transferred directly to the sample holder held at a constant 10° C. Sample measurement began immediately. Initial time point for analysis was determined by measuring time for a blank (1×PBS) to thermally equilibrate in these conditions. This was set as the zero point for all peptides, as the large jump in CD due to temperature makes the initial jump irresolvable. (A) Rate of assembly of CHP 9 (60, 30, and 15 μM), over 2 h, monitored at 225 nm. (B) Rate of assembly of CHP 9d (30, 15, and 7.5 μM, corresponding to same CHP strand concentration from panel A), over 2 h, monitored at 225 nm. (C) Rate of assembly of CHP 6 (150 and 75 μM), over 2 h, monitored at 225 nm.
FIGS. 12A and 12B show CD refolding at 10° C. of CMPs monitored at 225 nm. CMPs were heated to 80° C. for 5 minutes before being placed into the CD and initial 2 min of monitored data was removed to eliminate thermal transition. Signal was normalized to that of a fully folded peptide.
as §1

melting point ([1]; Example 3): 38 °C
Tm (° C.) ([1]; Table 1): 38 (SEQ ID NO: 58) ° C.
Tm (° C.) ([1]; Table 2): 38 (SEQ ID NO: 58) ° C.
Substance: [(GPO)6G3)2KG [6d]
refolding after two hours of incubation ([2]; 10° C., same strand concentration): almost completely refolded in two hours
time at which half refolded ([2]; CD refolding, 37.5 μM): 10 min
